Assay results reported in publication PMC12794188, “Maternal–Fetal Transfer and Toxicokinetics of 2,2′,5,5′-Tetrachlorobiphenyl, [^14C]-PCB52, Following Intratracheal Administration” (Chemical Research in Toxicology, 2025).

Experiment: Toxicokinetics and tissue disposition of total [14C] radioactivity after a single intratracheal dose of [14C]-PCB52 (0.157 mg/kg) in pregnant rats at GD 11±1
Assay type: in vivo, Sprague–Dawley rats
Protocol: Female Sprague–Dawley rats (8 weeks old) weighing 237–269.7 g (mean = 247.5 g) (Envigo RMS, LLC, Indianapolis, IN) were used for this study. All animal experiments were performed following the protocols evaluated and approved by the University of Iowa Institutional Animal Care and Use Committee (approval number 3091097). After arrival, the animals were acclimated for 7 days. The animals were housed in a light and temperature-controlled environment with ad libitum access to food and water during quarantine and throughout the study. Timed pregnancy was achieved by harem mating. , Briefly, one male and two female rats were placed together in the evening and checked for vaginal plug the following day. If vaginal plug was present, the male was removed from the breeding cage, and the gestation day 0 (GD 0), 0-day post coitum was assigned. Pregnancies were confirmed by ultrasound scan at GD 9. The dams were exposed at GD 11 (±1 day) to capture the period of early organogenesis and hormonal function, which falls within week 3 of human embryonic development. ,− On the day of the experiment, pregnant rats were intratracheally administered an average of 40 μg (range, 35–45 μg) of [^14C]-PCB52 in 100 μL of exposure solution. Although the dose used in this study exceeded the tolerable daily intake (TDI) of PCBs for healthy individuals, which is 1.6 μg per day for an individual weighing 80 kg, the use of higher acute doses has been established in toxicological studies intended for risk assessment. The intratracheal instillation method was chosen for administering [^14C]-PCB52 to represent inhalation exposures, capture exhaled concentration, and efficiently utilize the limited availability of the cost-intensive radiolabeled PCB52. , Although inhalation exposure would better represent real-world exposures to airborne LC-PCBs, it would not allow us to accurately measure the amount of PCB52 exhaled into the air after exposure and is experimentally infeasible. […] All intratracheal instillations were done under light anesthesia, achieved using a 4% isoflurane concentration via a Fortec vaporizer (Cyprane, Keighley, UK). The animals recovered from anesthesia within 1 min. Subsequently, the animals were housed within a cylindrical glass chamber measuring 2 L in volume, equipped with glass drainage mechanisms to facilitate urine collection and a metallic screen to segregate urine from feces (as in Figure S1). Air was drawn from the chamber at 6.0 L/min through a cartridge containing the XAD-2 polymeric resin to capture any exhaled [^14C]-PCB52. For periods longer than 24 h postexposure, exposed dams were placed in a metabolic cage, which was fitted with a cartridge containing XAD-2 to capture exhaled [^14C]-PCB52 as in other end points.
Maternal blood, urine, and feces samples were collected immediately before and at 0.21, 1.67, 12, 24, 48, and 96 h after lung dosing. The exposed dams were euthanized using 4% isoflurane, followed by cervical dislocation and exsanguination via a cardiac puncture. Euthanasia was consistently performed during the light cycle. Dams’ fur was wiped and analyzed for radioactivity. Using the retro-orbital blood collection method, 0.5–1.5 mL ([…] of an exposed pregnant rat’s body weight) of blood sample was collected from each of the dams until the individual dams were necropsied for whole-body tissue harvesting. At the end of the exposure period, the chamber’s interior walls were rinsed separately with water and acetone/hexane (25 – 45 mL) and wiped to measure residues. From the collected whole blood samples, 100 μL were aliquoted into three vials each, and the remaining blood was allowed to clot at room temperature before being centrifuged to yield serum. The placentas, developing fetuses, and whole-body tissue samples were harvested immediately before exposure and at 0.21, 1.67, 12, 24, and 96 h postexposure. […]

[1] = Salivary gland, 0.21 h post-exposure
[2] = Salivary gland, 1.67 h post-exposure
[3] = Salivary gland, 12 h post-exposure
[4] = Salivary gland, 24 h post-exposure
[5] = Salivary gland, 96 h post-exposure

Question: For `Clc1ccc(Cl)c(-c2cc(Cl)ccc2Cl)c1` [PCB52, 2,2′,5,5′-Tetrachlorobiphenyl], which Percent tissue distribution (Ovary, 0.21 h post-exposure) is on record?
Answer: 0.20%

Question: And the “Conc. per mg wet tissue” value (Ovary, 1.67 h post-exposure)?
Answer: 7.08 dpm/mg

Question: And the Percent tissue distribution (Ovary, 1.67 h post-exposure)?
Answer: 0.08%

Question: What about the “Conc. per mg wet tissue” value (Ovary, 12 h post-exposure) of the same compound?
Answer: 1.61 dpm/mg

Question: What about the Percent tissue distribution (Ovary, 12 h post-exposure) of the same compound?
Answer: 0.02%

Question: And the “Conc. per mg wet tissue” value (Ovary, 24 h post-exposure)?
Answer: 5.24 dpm/mg

Question: And the Percent tissue distribution (Ovary, 24 h post-exposure)?
Answer: 0.05%

Question: And the Percent tissue distribution (Ovary, 96 h post-exposure)?
Answer: 0.02%

Question: What about the AUC_%Extrap (Pancreas) of the same compound?
Answer: 37.26%

Question: What about the “Terminal elimination half-life (t1/2)” value (Pancreas) of the same compound?
Answer: 67.74 h

Question: What about the “Conc. per mg wet tissue” value (Pancreas, 0.21 h post-exposure) of the same compound?
Answer: 14.81 dpm/mg

Question: What about the Percent tissue distribution (Pancreas, 0.21 h post-exposure) of the same compound?
Answer: 0.91%

Question: And the “Conc. per mg wet tissue” value (Pancreas, 1.67 h post-exposure)?
Answer: 4.88 dpm/mg

Question: What about the Percent tissue distribution (Pancreas, 1.67 h post-exposure) of the same compound?
Answer: 0.39%

Question: And the “Conc. per mg wet tissue” value (Pancreas, 12 h post-exposure)?
Answer: 1.83 dpm/mg

Question: And the Percent tissue distribution (Pancreas, 12 h post-exposure)?
Answer: 0.07%

Question: What about the “Conc. per mg wet tissue” value (Pancreas, 24 h post-exposure) of the same compound?
Answer: 5.17 dpm/mg

Question: What about the Percent tissue distribution (Pancreas, 24 h post-exposure) of the same compound?
Answer: 0.30%

Question: What about the “Conc. per mg wet tissue” value (Pancreas, 96 h post-exposure) of the same compound?
Answer: 38.84 dpm/mg

Question: And the Percent tissue distribution (Pancreas, 96 h post-exposure)?
Answer: 0.14%

Question: And the Tmax (Pituitary gland)?
Answer: 96 h

Question: And the AUC_%Extrap (Rectal Amp.)?
Answer: 62.17%

Question: What about the “Terminal elimination half-life (t1/2)” value (Rectal Amp.) of the same compound?
Answer: 133.61 h

Question: What about the AUC_%Extrap (Salivary gland) of the same compound?
Answer: 44.09%

Question: What about the “Terminal elimination half-life (t1/2)” value (Salivary gland) of the same compound?
Answer: 84.60 h

Question: And the Tmax (Salivary gland)?
Answer: ≤ 0.21 h

Question: And the “Conc. per mg wet tissue” value [1]?
Answer: 8.48 dpm/mg

Question: And the Percent tissue distribution [1]?
Answer: 0.39%

Question: And the “Conc. per mg wet tissue” value [2]?
Answer: 2.93 dpm/mg

Question: And the Percent tissue distribution [2]?
Answer: 0.18%

Question: What about the “Conc. per mg wet tissue” value [3] of the same compound?
Answer: 1.44 dpm/mg

Question: And the Percent tissue distribution [3]?
Answer: 0.04%

Question: And the “Conc. per mg wet tissue” value [4]?
Answer: 2.06 dpm/mg

Question: And the Percent tissue distribution [4]?
Answer: 0.06%

Question: What about the “Conc. per mg wet tissue” value [5] of the same compound?
Answer: 0.34 dpm/mg

Question: What about the Percent tissue distribution [5] of the same compound?
Answer: 0.04%

Question: What about the AUC_%Extrap (Skin) of the same compound?
Answer: 30.85%

Question: And the “Terminal elimination half-life (t1/2)” value (Skin)?
Answer: 58.90 h

Question: What about the AUC_%Extrap (Small Intestine) of the same compound?
Answer: 25.66%

Question: And the “Terminal elimination half-life (t1/2)” value (Small Intestine)?
Answer: 47.33 h

Question: What about the AUC_%Extrap (Spleen) of the same compound?
Answer: 35.06%

Question: And the “Terminal elimination half-life (t1/2)” value (Spleen)?
Answer: 55.79 h

Question: And the “Conc. per mg wet tissue” value (Spleen, 0.21 h post-exposure)?
Answer: 13.12 dpm/mg

Question: And the Percent tissue distribution (Spleen, 0.21 h post-exposure)?
Answer: 0.29%

Question: And the “Conc. per mg wet tissue” value (Spleen, 1.67 h post-exposure)?
Answer: 3.05 dpm/mg

Question: And the Percent tissue distribution (Spleen, 1.67 h post-exposure)?
Answer: 0.12%

Question: What about the “Conc. per mg wet tissue” value (Spleen, 12 h post-exposure) of the same compound?
Answer: 2.62 dpm/mg

Question: And the Percent tissue distribution (Spleen, 12 h post-exposure)?
Answer: 0.04%

Question: And the “Conc. per mg wet tissue” value (Spleen, 24 h post-exposure)?
Answer: 5.75 dpm/mg

Question: And the Percent tissue distribution (Spleen, 24 h post-exposure)?
Answer: 0.07%

Question: What about the “Conc. per mg wet tissue” value (Spleen, 96 h post-exposure) of the same compound?
Answer: 0.87 dpm/mg

Question: And the Percent tissue distribution (Spleen, 96 h post-exposure)?
Answer: 0.03%

Question: What about the AUC_%Extrap (Stomach) of the same compound?
Answer: 15.03%

Question: What about the “Terminal elimination half-life (t1/2)” value (Stomach) of the same compound?
Answer: 32.02 h

Question: And the Tmax (Stomach)?
Answer: ≤ 0.21 h

Question: And the “Conc. per mg wet tissue” value (Stomach, 0.21 h post-exposure)?
Answer: 36.55 dpm/mg

Question: What about the Percent tissue distribution (Stomach, 0.21 h post-exposure) of the same compound?
Answer: 0.71%

Question: What about the “Conc. per mg wet tissue” value (Stomach, 1.67 h post-exposure) of the same compound?
Answer: 17.01 dpm/mg

Question: And the Percent tissue distribution (Stomach, 1.67 h post-exposure)?
Answer: 0.23%

Question: And the “Conc. per mg wet tissue” value (Stomach, 12 h post-exposure)?
Answer: 4.80 dpm/mg

Question: And the Percent tissue distribution (Stomach, 12 h post-exposure)?
Answer: 0.33%

Question: And the “Conc. per mg wet tissue” value (Stomach, 24 h post-exposure)?
Answer: 6.56 dpm/mg

Question: And the Percent tissue distribution (Stomach, 24 h post-exposure)?
Answer: 0.44%

Question: And the “Conc. per mg wet tissue” value (Stomach, 96 h post-exposure)?
Answer: 2.28 dpm/mg

Question: What about the Percent tissue distribution (Stomach, 96 h post-exposure) of the same compound?
Answer: 0.10%

Question: What about the AUC_%Extrap (Thymus) of the same compound?
Answer: 25.14%

Question: And the “Terminal elimination half-life (t1/2)” value (Thymus)?
Answer: 53.40 h

Question: And the AUC_%Extrap (Thyroid)?
Answer: 12.95%

Question: What about the “Terminal elimination half-life (t1/2)” value (Thyroid) of the same compound?
Answer: 37.74 h

Question: And the “Conc. per mg wet tissue” value (Tongue, 0.21 h post-exposure)?
Answer: 0.16 dpm/mg

Question: And the Percent tissue distribution (Tongue, 0.21 h post-exposure)?
Answer: 0.67%

Question: What about the “Conc. per mg wet tissue” value (Tongue, 1.67 h post-exposure) of the same compound?
Answer: 4.42 dpm/mg

Question: What about the Percent tissue distribution (Tongue, 1.67 h post-exposure) of the same compound?
Answer: 0.0003%

Question: What about the “Conc. per mg wet tissue” value (Tongue, 12 h post-exposure) of the same compound?
Answer: 1.08 dpm/mg

Question: And the Percent tissue distribution (Tongue, 12 h post-exposure)?
Answer: 0.06%

Question: And the “Conc. per mg wet tissue” value (Tongue, 24 h post-exposure)?
Answer: 1.03 dpm/mg

Question: And the Percent tissue distribution (Tongue, 24 h post-exposure)?
Answer: 0.05%

Question: What about the “Conc. per mg wet tissue” value (Tongue, 96 h post-exposure) of the same compound?
Answer: 0.16 dpm/mg

Question: And the Percent tissue distribution (Tongue, 96 h post-exposure)?
Answer: 0.01%

Question: What about the “Conc. per mg wet tissue” value (Trachea, 0.21 h post-exposure) of the same compound?
Answer: 142.06 dpm/mg

Question: And the Percent tissue distribution (Trachea, 0.21 h post-exposure)?
Answer: 0.83%

Question: And the “Conc. per mg wet tissue” value (Trachea, 1.67 h post-exposure)?
Answer: 40.98 dpm/mg

Question: What about the Percent tissue distribution (Trachea, 1.67 h post-exposure) of the same compound?
Answer: 0.24%
